Assay results from ChEMBL document CHEMBL1201862, “PubChem BioAssay data set” (2004).
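Following 48 hours of exposure in 96-well plates, responses at five concentrations were used to interpolate endpoints linearly. The concentration for 50% growth inhibition is given as GI50.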 Activity calls are given as the source filed them. Cut-off read from the data, not from the text of the source: active = GI50 up to about 1.1 µM and inactive = higher.

Legend:
Test in all cases: inhibition of tumour cell growth, NCI panel, 48 h
786-0 = test system: 786-0
ACHN = test system: ACHN
CCRF-CEM = test system: CCRF-CEM
COLO 205 = test system: COLO 205
DLD-1 = test system: DLD-1
DMS-114 = test system: DMS-114
DMS-273 = test system: DMS-273
EKVX = test system: EKVX
HCC 2998 = test system: HCC 2998
HCT-116 = test system: HCT-116
HCT-15 = test system: HCT-15
HL-60 = test system: HL-60
HOP-18 = test system: HOP-18
HOP-92 = test system: HOP-92
HT-29 = test system: HT-29
IGROV-1 = test system: IGROV-1
KM-20L2 = test system: KM-20L2
LXFL 529 = test system: LXFL 529
M14 = test system: M14
M19-MEL = test system: M19-MEL
Malme-3M = test system: Malme-3M
NCI-H226 = test system: NCI-H226
NCI-H23 = test system: NCI-H23
NCI-H460 = test system: NCI-H460
OVCAR-3 = test system: OVCAR-3
OVCAR-4 = test system: OVCAR-4
OVCAR-8 = test system: OVCAR-8
SF-268 = test system: SF-268
SF-539 = test system: SF-539
SK-MEL-28 = test system: SK-MEL-28
SK-MEL-2 = test system: SK-MEL-2
SK-MEL-5 = test system: SK-MEL-5
SN12C = test system: SN12C
SNB-78 = test system: SNB-78
SW-620 = test system: SW-620
UACC-257 = test system: UACC-257
UACC-62 = test system: UACC-62
XF498 = test system: XF498
A498 = test system: A498
A549 = test system: A549
HOP-62 = test system: HOP-62
K562 = test system: K562
KM12 = test system: KM12
LOX IMVI = test system: LOX IMVI
MOLT-4 = test system: MOLT-4
NCI-H522 = test system: NCI-H522
OVCAR-5 = test system: OVCAR-5
RPMI-8226 = test system: RPMI-8226
RXF 393 = test system: RXF 393
SF-295 = test system: SF-295
SK-OV-3 = test system: SK-OV-3
SNB-19 = test system: SNB-19
SNB-75 = test system: SNB-75
SR = test system: SR
TK-10 = test system: TK-10
U-251 = test system: U-251
UO-31 = test system: UO-31

C=C1CCC2[C@@H](CCC3[C@]2(C)CCC[C@]3(C)C(=O)OC)[C@@H]1CC=O (some centres undefined)
GI50 (786-0): 36.1 µM (inactive)
GI50 (ACHN): 27.2 µM (inactive)
GI50 (CCRF-CEM): 22.4 µM (inactive)
GI50 (COLO 205): 36.9 µM (inactive)
GI50 (DLD-1): 33.6 µM (inactive)
GI50 (DMS-114): 22 µM (inactive)
GI50 (DMS-273): 22.4 µM (inactive)
GI50 (EKVX): 35.1 µM (inactive)
GI50 (HCC 2998): 61.7 µM (inactive)
GI50 (HCT-116): 16.7 µM (inactive)
GI50 (HCT-15): 29.5 µM
GI50 (HL-60): 23.5 µM (inactive)
GI50 (HOP-18): 24.8 µM (inactive)
GI50 (HOP-92): 20.2 µM (inactive)
GI50 (HT-29): 28.1 µM (inactive)
GI50 (IGROV-1): 35.8 µM (inactive)
GI50 (KM-20L2): 27 µM (inactive)
GI50 (LXFL 529): 31.9 µM (inactive)
GI50 (M14): 19.4 µM (inactive)
GI50 (M19-MEL): 22.4 µM (inactive)
GI50 (Malme-3M): 28.8 µM (inactive)
GI50 (NCI-H226): 27.7 µM (inactive)
GI50 (NCI-H23): 25.8 µM (inactive)
GI50 (NCI-H460): 20 µM (inactive)
GI50 (OVCAR-3): 20.5 µM (inactive)
GI50 (OVCAR-4): 27.6 µM (inactive)
GI50 (OVCAR-8): 23.6 µM (inactive)
GI50 (SF-268): 34.6 µM (inactive)
GI50 (SF-539): 17.9 µM (inactive)
GI50 (SK-MEL-28): 27.7 µM (inactive)
GI50 (SK-MEL-2): 31.6 µM (inactive)
GI50 (SK-MEL-5): 17 µM (inactive)
GI50 (SN12C): 30.3 µM (inactive)
GI50 (SNB-78): 34.4 µM (inactive)
GI50 (SW-620): 17.6 µM (inactive)
GI50 (UACC-257): 26.5 µM (inactive)
GI50 (UACC-62): 24.6 µM (inactive)
GI50 (XF498): 19.9 µM (inactive)

C=C1CCC2[C@@H](CCC3[C@]2(C)CCC[C@]3(C)C(=O)OC)C1CC=O (some centres undefined)
GI50 (786-0): 18.1 µM (inactive)
GI50 (ACHN): 15.9 µM (inactive)
GI50 (CCRF-CEM): 14 µM (inactive)
GI50 (COLO 205): 18.5 µM (inactive)
GI50 (DLD-1): 21.6 µM (inactive)
GI50 (DMS-114): 17.5 µM (inactive)
GI50 (DMS-273): 20.9 µM (inactive)
GI50 (EKVX): 20.1 µM (inactive)
GI50 (HCT-116): 15.2 µM (inactive)
GI50 (HCT-15): 19.9 µM
GI50 (HL-60): 15.6 µM (inactive)
GI50 (HOP-18): 15.6 µM (inactive)
GI50 (HOP-92): 14.6 µM (inactive)
GI50 (HT-29): 16.6 µM (inactive)
GI50 (IGROV-1): 20.2 µM (inactive)
GI50 (KM-20L2): 18.8 µM (inactive)
GI50 (LXFL 529): 16 µM (inactive)
GI50 (M14): 16.5 µM (inactive)
GI50 (M19-MEL): 18.2 µM (inactive)
GI50 (Malme-3M): 19.1 µM (inactive)
GI50 (NCI-H226): 17.9 µM (inactive)
GI50 (NCI-H23): 18.6 µM (inactive)
GI50 (NCI-H460): 15.3 µM (inactive)
GI50 (OVCAR-3): 14.2 µM (inactive)
GI50 (OVCAR-4): 17.4 µM (inactive)
GI50 (OVCAR-8): 19.4 µM (inactive)
GI50 (SF-268): 18.2 µM (inactive)
GI50 (SF-539): 16.9 µM (inactive)
GI50 (SK-MEL-28): 16.3 µM (inactive)
GI50 (SK-MEL-2): 18.9 µM (inactive)
GI50 (SK-MEL-5): 19.6 µM (inactive)
GI50 (SN12C): 18.2 µM (inactive)
GI50 (SNB-78): 17.6 µM (inactive)
GI50 (SW-620): 19.1 µM (inactive)
GI50 (UACC-257): 16.2 µM (inactive)
GI50 (UACC-62): 15.2 µM (inactive)
GI50 (XF498): 14.1 µM (inactive)

Cc1nc2nn(C)cc2c(=O)n1/N=C/c1ccccc1
GI50 (786-0): > 100 µM (inactive)
GI50 (A498): > 100 µM (inactive)
GI50 (A549): > 100 µM (inactive)
GI50 (ACHN): > 100 µM (inactive)
GI50 (CCRF-CEM): > 100 µM (inactive)
GI50 (COLO 205): > 100 µM (inactive)
GI50 (DLD-1): > 100 µM (inactive)
GI50 (DMS-114): > 100 µM (inactive)
GI50 (DMS-273): > 100 µM (inactive)
GI50 (EKVX): > 100 µM (inactive)
GI50 (HCC 2998): > 100 µM (inactive)
GI50 (HCT-116): > 100 µM (inactive)
GI50 (HCT-15): > 100 µM
GI50 (HL-60): > 100 µM (inactive)
GI50 (HOP-18): 73.1 µM (inactive)
GI50 (HOP-62): > 100 µM (inactive)
GI50 (HT-29): > 100 µM (inactive)
GI50 (IGROV-1): > 100 µM (inactive)
GI50 (K562): > 100 µM (inactive)
GI50 (KM-20L2): > 100 µM (inactive)
GI50 (KM12): > 100 µM (inactive)
GI50 (LOX IMVI): > 100 µM (inactive)
GI50 (M19-MEL): > 100 µM (inactive)
GI50 (MOLT-4): > 100 µM (inactive)
GI50 (Malme-3M): > 100 µM (inactive)
GI50 (NCI-H226): > 100 µM (inactive)
GI50 (NCI-H23): > 100 µM (inactive)
GI50 (NCI-H460): > 100 µM (inactive)
GI50 (NCI-H522): > 100 µM (inactive)
GI50 (OVCAR-3): > 100 µM (inactive)
GI50 (OVCAR-4): > 100 µM (inactive)
GI50 (OVCAR-5): > 100 µM (inactive)
GI50 (OVCAR-8): > 100 µM (inactive)
GI50 (RPMI-8226): > 100 µM (inactive)
GI50 (RXF 393): > 100 µM (inactive)
GI50 (SF-268): > 100 µM (inactive)
GI50 (SF-295): > 100 µM (inactive)
GI50 (SF-539): > 100 µM (inactive)
GI50 (SK-MEL-28): > 100 µM (inactive)
GI50 (SK-MEL-2): > 100 µM (inactive)
GI50 (SK-MEL-5): > 100 µM (inactive)
GI50 (SK-OV-3): > 100 µM (inactive)
GI50 (SN12C): > 100 µM (inactive)
GI50 (SNB-19): > 100 µM (inactive)
GI50 (SNB-75): > 100 µM (inactive)
GI50 (SNB-78): > 100 µM (inactive)
GI50 (SR): > 100 µM (inactive)
GI50 (SW-620): > 100 µM (inactive)
GI50 (TK-10): > 100 µM (inactive)
GI50 (U-251): > 100 µM (inactive)
GI50 (UACC-257): > 100 µM (inactive)
GI50 (UACC-62): > 100 µM (inactive)
GI50 (UO-31): > 100 µM (inactive)
GI50 (XF498): > 100 µM (inactive)
